Experimental data taken from PubChem BioAssay (NCI).
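Assay format: 96-well plates, 48-hour exposure. GI50: concentration for 50% inhibition of growth. TGI denotes the concentration required for complete inhibition of growth.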

Key:
Assay in all cases: NCI tumour cell line growth inhibition, 48 h
U251 CNS = test system: U251 CNS
CCRF-CEM leukemia = test system: CCRF-CEM leukemia
NCI-H226 lung = test system: NCI-H226 lung
M14 melanoma = test system: M14 melanoma
SK-OV-3 ovarian = test system: SK-OV-3 ovarian
MALME-3M melanoma = test system: MALME-3M melanoma
K-562 leukemia = test system: K-562 leukemia
HCT-15 colon = test system: HCT-15 colon
BT-549 breast = test system: BT-549 breast
DU-145 prostate = test system: DU-145 prostate

Row | SMILES | TGI (U251 CNS) [µM] | TGI (CCRF-CEM leukemia) [µM] | TGI (NCI-H226 lung) [µM] | TGI (M14 melanoma) [µM] | TGI (SK-OV-3 ovarian) [µM] | TGI (MALME-3M melanoma) [µM] | TGI (K-562 leukemia) [µM] | TGI (HCT-15 colon) [µM] | GI50 (U251 CNS) [µM] | GI50 (CCRF-CEM leukemia) [µM] | GI50 (NCI-H226 lung) [µM] | GI50 (M14 melanoma) [µM] | GI50 (SK-OV-3 ovarian) [µM] | GI50 (BT-549 breast) [µM] | TGI (BT-549 breast) [µM] | GI50 (K-562 leukemia) [µM] | GI50 (DU-145 prostate) [µM] | TGI (DU-145 prostate) [µM] | GI50 (HCT-15 colon) [µM] | GI50 (MALME-3M melanoma) [µM]
1 | Nc1nc(NCCO)c(N=O)c(=O)[nH]1 | > 100 | > 100 | > 100 | > 100 | > 100 | > 100 | > 100 | > 100 |  |  |  |  |  |  |  |  |  |  |  | 
2 | COc1cc2c3c(n(CCCN(CCN)CCCn4c5c(c6cc(OC)c(OC)cc6c4=O)C(=O)c4cc6c(cc4-5)OCO6)c(=O)c2cc1OC)-c1cc2c(cc1C3=O)OCO2 | 5.99 | 0.407 | 2.76 | 18.3 | > 91.6 |  | > 32.5 | > 100 | 0.354 | 0.116 | 0.449 | 0.752 | 1.41 | 5.08 | > 79.3 | 2.73 | 0.663 | > 100 | 8.43 | 
3 | Cc1ccccc1C1OC(=O)c2ccccc21 (stereo unspecified) | > 100 | > 100 | > 100 | > 100 | > 100 | > 100 | > 100 | > 100 |  |  |  |  |  |  |  |  |  |  |  | 
4 | O=C(C=Nc1ccccc1C(=O)[O-])c1cccs1.O=C(C=Nc1ccccc1C(=O)[O-])c1cccs1.[Co+2] | > 100 | > 100 |  | > 100 | > 100 | > 100 | > 100 | > 100 |  |  |  |  |  |  |  |  |  |  |  | 
5 | COc1ccc(-n2cc(-c3cc(OC)c(OC)c(OC)c3)nc2SCc2ccccc2)cc1 | > 100 | > 100 | > 100 | > 100 | > 100 | > 100 | > 100 | > 100 | 43.8 | 3.63 | > 100 | > 100 | > 100 |  |  | 9.43 | > 100 | > 100 | > 100 | > 100
6 | CCCOC(=O)C1CCC(=O)N1C(=O)C(C)Cl (stereo unspecified) | > 100 | > 100 | > 100 | > 100 | > 100 | > 100 | > 100 | > 100 |  |  |  |  |  |  |  |  |  |  |  | 
7 | c1ccc2c(c1)sc1c3cnccc3ccc21 | > 100 |  | > 100 | > 100 | > 100 | > 100 | > 100 | > 100 |  |  |  |  |  |  | > 100 |  |  | > 100 |  | 
8 | CCOC(=O)c1sc2ncn(Cc3cccc(Br)c3)c(=O)c2c1C | > 100 |  | 85 | 53.8 | > 100 |  | > 100 | > 100 | 31.7 |  | 19.8 | 20.9 | > 100 | 28.7 | > 100 | 16.8 | 88.8 | > 100 | 62.4 | 
9 | CC1=C(/C=C/C(=O)O)C(C)(C)CCC1 | > 100 |  | > 100 | > 100 | > 100 | > 100 | > 100 | > 100 |  |  |  |  |  |  | > 100 |  |  | > 100 |  | 
